Results from patent US5563158A, “Aromatic compounds containing basic and acidic termini useful as fibrinogen receptor antagonists” (The Dupont Merck Pharmaceutical Company, priority 1994, dated 1996).
Counter-ions that a name gives are not always drawn.

The molecules below were run on platelet-rich plasma (PRP) platelets (assay: Platelet aggregation assay (agonist-induced aggregation in human platelet-rich plasma, aggregometer)). Conditions: inhibition of agonist-induced platelet aggregation, test compounds added prior to activation of the platelets.
Assay type: cell-based
Experimental: Platelet Aggregation Assay:
Venous blood was obtained from the arm of a healthy human donor who was drug-free and aspirin-free for at least two weeks prior to blood collection. Blood was collected into 10 mL citrated Vacutainer tubes. The blood was centrifuged for 15 minutes at 150×g at room temperature, and platelet-rich plasma (PRP) was removed. The remaining blood was centrifuged for 15 minutes at 1500×g at room temperature, and platelet-poor plasma (PPP) was removed. Samples were assayed on a aggregometer (PAP-4 Platelet Aggregation Profiler), using PPP as the blank (100% transmittance). 200 μL of PRP was added to each micro test tube, and transmittance was set to 0%. 20 μL of various agonists (ADP, collagen, arachidonate, epinephrine, thrombin) were added to each tube, and the aggregation profiles were plotted (% transmittance versus time). The results are expressed as % inhibition of agonist-induced platelet aggregation. For the IC50 evaluation, the test compounds were added at various concentrations prior to the activation of the platelets.

Row | Compound | IC50 [µM]
1 | CC(CC(=O)O)NC(=O)c1cccc(COc2ccc(C(=N)N)cc2)c1 (racemic) [Example 85, N-(3-(4-Amidinophenyloxymethyl)benzoyl)-DL-3-aminobutyric acid TFA salt] | < 10
2 | CC(CC(=O)O)NC(=O)c1cccc(OCc2ccc(C(=N)N)cc2)c1 (racemic) [Example 91, N-(3-(4-amidinobenzyloxy)benzoyl)-DL-3-aminobutyric acid TFA salt] | < 10
3 | N=C(N)c1ccc(COc2cccc(C(=O)NC(CC(=O)O)C(F)(F)F)c2)cc1 (racemic) [Example 92, N-(3-(4-amidinobenzyloxy)benzoyl)-DL-3-amino-4,4,4-trifluorobutyric acid TFA salt] | 51 to 100
4 | CCCCOC(=O)N[C@@H](CNC(=O)c1cccc(COc2ccc(C(=N)N)cc2)c1)C(=O)OC [Example 3a, Methyl N-^2-1-butyloxycarbonyl-N^3-(3-(4-amidinophenyloxymethyl)benzoyl)-L-2,3-diaminopropionate TFA salt] | < 10
5 | COC(=O)[C@H](CNC(=O)c1cccc(COc2ccc(C(=N)N)cc2)c1)NC(=O)CCc1ccccc1 [Example 6a, Methyl N^2-(3-phenylpropionyl)-N^3-(3-(4-amidinophenyloxymethyl)benzoyl)-L-2,3-diaminopropionate TFA salt] | < 10
6 | CCCCS(=O)(=O)N[C@@H](CNC(=O)c1cccc(COc2ccc(C(=N)N)cc2)c1)C(=O)O [Example 14, N^2-1-butanesulfonyl-N^3-(3-(4-amidinophenyloxymethyl)benzoyl)-2,3-diaminopropionic acid TFA salt] | < 10
7 | Cc1ccc(S(=O)(=O)N[C@@H](CNC(=O)c2cccc(COc3ccc(C(=N)N)cc3)c2)C(=O)O)cc1 [Example 16, N^2-p-toluenesulfonyl-N^3-(3-(4-amidinophenyloxymethyl)benzoyl)-L-2,3-diaminopropionic acid TFA salt] | < 10
8 | COC(=O)[C@H](CNC(=O)c1cccc(COc2ccc(C(=N)N)cc2)c1)NS(=O)(=O)c1ccc(C)cc1 [Example 16a, Methyl N^2-p-toluenesulfonyl-N^3-(3-(4-amidinophenyloxymethyl)benzoyl)-L-2,3-diaminopropionate TFA salt] | 10 to 50
9 | COC(=O)[C@H](CNC(=O)c1cccc(COc2ccc(C(=N)N)cc2)c1)NC(=O)c1ccccn1 [Example 18a] | < 10
10 | COC(=O)[C@H](CNC(=O)c1cccc(COc2ccc(C(=N)N)cc2)c1)NC(=O)c1cccnc1 [Example 19a, Methyl-N^2-nicotinoyl-N^3-[3-(4-amidinophenyloxymethyl)benzoyl]-L-2,3-diaminopropionate, TFA salt] | < 10
11 | COC(=O)[C@H](CNC(=O)c1cccc(COc2ccc(C(=N)N)cc2)c1)NC(=O)c1ccncc1 [Example 20a] | < 10
12 | N=C(N)c1ccc(OCc2cccc(C(=O)NCCC(=O)O)c2)cc1 [Example 27, N-(3-(4-amidinophenyloxymethyl)benzoyl)-3-aminopropionic acid TFA salt] | < 10
13 | N=C(N)c1ccc(OCc2cccc(C(=O)NC[C@H](NC(=O)OCc3ccccc3)C(=O)O)c2)cc1 [Example 53, N^2 -Cbz-N^3-(3-(4-amidinophenyloxymethyl)benzoyl)-L-2,3-diaminopropionic acid TFA salt] | < 10
14 | O=C(O)CCNC(=O)c1cccc(OCCCC2CCNCC2)c1 [Example 84a] | < 10
15 | O=C(O)CCNC(=O)c1ccc(OCCCC2CCNCC2)cc1 [Example 84b, TFA salt] | < 10
16 | CCOC(=O)C(CNC(=O)c1cccc(COc2ccc(C(=N)N)cc2)c1)NC(=O)OCc1ccccc1 (stereo not shown) [Example 110] | 10 to 50
17 | COC(=O)[C@H](CNC(=O)c1cccc(COc2ccc(C(=N)N)cc2)c1)NC(=O)Cc1cccnc1 [Example 119a, Methyl-N^2-3-pyridylacetoyl-N^3-[3-(4-amidinophenyloxymethyl)benzoyl]-L-2,3-diaminopropionate] | < 10
18 | CCCCOC(=O)N[C@@H](CNC(=O)c1cc(OCc2ccc(C(=N)N)cc2)no1)C(=O)O [Example 123, N^2-n-butyloxycarbonyl-N^3-[3-(4-amidinobenzyloxy)-5-isoxazolecarbonyl]-L-2,3-diaminopropionate TFA salt] | < 10
19 | CCCCOC(=O)N[C@@H](CNC(=O)c1cc(OCc2ccc(C(=N)N)cc2)no1)C(=O)OC [Example 142, Methyl N^2-n-butyloxycarbonyl-N^3-[3-(4-amidinobenzyloxy)-5 isoxazolecarbonyl]-L-2,3-diaminopropionate TFA salt] | < 10
20 | CCCCOC(=O)N[C@@H](CNC(=O)c1cc(OCC2CCN(C(=N)N)CC2)no1)C(=O)OC [Example 479, Methyl N^2-n-butyloxycarbonyl-N-[3-(N-amidino-4-piperidinylmethoxy)-5-isoxazolecarbonyl]-L-2,3-diaminopropionate TFA salt] | < 10
21 | O=C(O)CC1CCCCN1C(=O)c1ccc(OCCCC2CCNCC2)cc1 (stereo not shown) [Example 480] | 10 to 50
22 | O=C(O)CC1CCCCCN1C(=O)c1ccc(OCCCC2CCNCC2)cc1 (stereo not shown) [Example 481] | 10 to 50
23 | O=C(O)CC1CCCCN1C(=O)c1ccc(OCCC2CCNCC2)cc1 (stereo not shown) [Example 482] | 51 to 100
24 | COC(=O)[C@H](CNC(=O)c1cccc(COc2ccc(C(=N)N)cc2)c1)NC(=O)Cc1ccccn1 [Example 500a] | < 10
25 | COC(=O)[C@H](CNC(=O)c1cccc(COc2ccc(C(=N)N)cc2)c1)NC(=O)Cc1ccncc1 [Example 501a] | < 10
